Results as given in PMC5592720 (Planta medica, 2013).
Where “and” joins values, the source holds several entries; their conditions need not be identical. Equal values may be shown once. Read-outs that look alike come from different tables or passages of the source.

Tests used:
[1] = Phase I metabolic stability in human liver microsomes; assay type: in vitro ADME; conditions: pooled human liver microsomes; for Stability in HLM (Phase I): up to 180 min, words
[2] = biological target: CYP3A4 (Homo sapiens, UniProt P08684); assay: Inhibition of cytochrome P450 3A4
[3] = biological target: T1, CYP2C19 (Homo sapiens, UniProt P33261)
[4] = biological target: T2, CYP2D6 (Homo sapiens, UniProt P10635)
[5] = Stability in simulated intestinal fluid; assay type: in vitro ADME; conditions: for % RD of diosgenin depletion / % RD of dioscin depletion: RD = relative difference
[6] = biological target: T2, CYP2D6; assay: biochemical
[7] = Stability in simulated gastric fluid; assay type: in vitro ADME; conditions: for % RD of diosgenin depletion / % RD of dioscin depletion: RD = relative difference; for Degradation (depletion) in SGF: SGF pH 1.2, end of incubation (b9 prints 3-hour incubation)
[8] = Phase II metabolic stability in S9 fractions; assay type: in vitro ADME, human
[9] = biological target: T3, CYP1A2 (Homo sapiens, UniProt P05177); assay: Inhibition of cytochrome P450 1A2
T3 sequence (P05177 1-516): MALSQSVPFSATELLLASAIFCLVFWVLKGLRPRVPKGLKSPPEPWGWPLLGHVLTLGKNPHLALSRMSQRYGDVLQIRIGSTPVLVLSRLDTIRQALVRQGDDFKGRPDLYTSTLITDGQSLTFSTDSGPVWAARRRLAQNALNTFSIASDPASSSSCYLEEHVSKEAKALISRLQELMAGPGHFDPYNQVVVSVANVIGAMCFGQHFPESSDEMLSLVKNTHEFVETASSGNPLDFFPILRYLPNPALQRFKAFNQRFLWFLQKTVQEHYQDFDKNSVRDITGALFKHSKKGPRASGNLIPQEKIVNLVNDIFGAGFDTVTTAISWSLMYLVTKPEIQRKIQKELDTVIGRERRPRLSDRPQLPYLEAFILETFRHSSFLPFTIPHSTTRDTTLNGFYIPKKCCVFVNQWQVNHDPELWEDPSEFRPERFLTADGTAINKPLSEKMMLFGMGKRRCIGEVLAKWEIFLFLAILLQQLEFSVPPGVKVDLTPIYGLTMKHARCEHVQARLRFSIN

[10] = tested on: Caco-2 cell monolayers; assay: in vitro; assay type: in vitro ADME, human; conditions: for % Transport Absorptive direction (A–B) / % Transport Secretory direction (A–B): Caco-2 monolayers, 1% HPβCD, 2 h; for Intestinal permeability across Caco-2 monolayers (rating): relative to atenolol and propranolol
[11] = in vitro; assay type: in vitro ADME, human; conditions: human, Caco-2
[12] = cited from earlier work
[13] = biological target: T3, CYP1A2
[14] = rat, cited from earlier work
[15] = biological target: T1, CYP2C19; assay: Inhibition of cytochrome P450 2C19; conditions: words; table prints 2C19
[16] = IC50 3A4, cDNA baculovirus-expressed enzyme, fluorescence substrate
[17] = IC50 CYP3A4, text, catalytic activity of CYP3A4

Sequence of CYP3A4 (P08684 whole entry): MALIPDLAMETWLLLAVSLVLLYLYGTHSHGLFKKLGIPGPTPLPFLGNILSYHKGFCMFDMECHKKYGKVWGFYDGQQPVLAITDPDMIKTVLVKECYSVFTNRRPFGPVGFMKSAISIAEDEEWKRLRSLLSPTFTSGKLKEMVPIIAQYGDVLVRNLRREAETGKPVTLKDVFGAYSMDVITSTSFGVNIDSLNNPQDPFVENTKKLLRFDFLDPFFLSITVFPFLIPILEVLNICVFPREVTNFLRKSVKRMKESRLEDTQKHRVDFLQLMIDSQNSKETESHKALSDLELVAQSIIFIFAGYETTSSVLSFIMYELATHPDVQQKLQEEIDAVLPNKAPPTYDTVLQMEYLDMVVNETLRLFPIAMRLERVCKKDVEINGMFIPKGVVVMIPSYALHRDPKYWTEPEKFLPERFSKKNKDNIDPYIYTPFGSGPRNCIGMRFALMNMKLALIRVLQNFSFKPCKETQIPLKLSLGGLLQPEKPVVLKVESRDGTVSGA
T2 sequence (P10635 whole entry): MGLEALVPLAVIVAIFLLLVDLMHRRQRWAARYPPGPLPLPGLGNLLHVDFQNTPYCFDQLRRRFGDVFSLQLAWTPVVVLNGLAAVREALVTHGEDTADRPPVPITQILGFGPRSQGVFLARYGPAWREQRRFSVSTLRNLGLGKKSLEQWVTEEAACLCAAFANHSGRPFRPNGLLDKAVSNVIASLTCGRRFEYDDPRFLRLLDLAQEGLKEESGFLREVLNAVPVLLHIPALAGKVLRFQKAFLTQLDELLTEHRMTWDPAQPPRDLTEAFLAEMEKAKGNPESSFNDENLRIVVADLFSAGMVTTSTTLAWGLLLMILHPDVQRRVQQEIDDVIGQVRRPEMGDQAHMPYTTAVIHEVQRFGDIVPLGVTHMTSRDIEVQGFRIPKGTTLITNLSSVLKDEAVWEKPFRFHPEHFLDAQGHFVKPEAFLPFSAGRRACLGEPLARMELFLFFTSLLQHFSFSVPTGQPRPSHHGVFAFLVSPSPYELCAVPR
T1 sequence (P33261 whole entry): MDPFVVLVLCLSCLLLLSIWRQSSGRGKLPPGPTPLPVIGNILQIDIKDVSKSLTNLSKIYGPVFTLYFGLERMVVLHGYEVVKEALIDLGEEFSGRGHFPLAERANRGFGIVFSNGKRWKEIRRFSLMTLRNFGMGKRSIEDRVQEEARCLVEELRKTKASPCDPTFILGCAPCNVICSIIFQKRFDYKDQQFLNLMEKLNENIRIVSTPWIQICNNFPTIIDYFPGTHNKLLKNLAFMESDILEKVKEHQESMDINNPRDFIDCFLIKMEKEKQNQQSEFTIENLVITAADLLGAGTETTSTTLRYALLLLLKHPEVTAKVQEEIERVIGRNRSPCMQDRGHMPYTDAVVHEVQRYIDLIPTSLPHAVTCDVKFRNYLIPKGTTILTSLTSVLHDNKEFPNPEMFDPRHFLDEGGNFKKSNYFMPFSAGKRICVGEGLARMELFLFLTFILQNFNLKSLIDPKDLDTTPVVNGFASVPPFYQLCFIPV

C[C@@H]1CC[C@@]2(OC1)O[C@H]1C[C@H]3[C@@H]4CC=C5C[C@@H](O)CC[C@]5(C)[C@H]4CC[C@]3(C)[C@H]1[C@@H]2C [Diosgenin, diosgenin]
Stability in HLM (Phase I) [1]: stable | IC50 [2, 16]: 17 ± 4 µM | IC50 [2, 17]: 21.7 µM | Effect on CYP 2C9 as printed in text (other CYP enzymes) [3]: not affected | Effect on CYP 2D6 (other CYP enzymes) [4]: not affected | % RD of diosgenin depletion ([5]; SIF pH 6.8, 60 min): 1.28% | % RD of diosgenin depletion ([5]; SIF pH 6.8, 120 min): 4.21% | % RD of diosgenin depletion ([5]; SIF pH 6.8, 180 min): 4.80% | Degradation (disappearance) in SIF ([5]; SIF pH 6.8, after 3 hours of incubation): < 10% and 4.8% | Amount of diosgenin in SIF ([5]; SIF pH 6.8, incubation 0 min): 57.0 ± 1.0 µg/mL | Amount of diosgenin in SIF ([5]; SIF pH 6.8, incubation 60 min): 56.2 ± 1.9 µg/mL | Amount of diosgenin in SIF ([5]; SIF pH 6.8, incubation 120 min): 54.6 ± 2.0 µg/mL | Amount of diosgenin in SIF ([5]; SIF pH 6.8, incubation 180 min): 54.2 ± 3.2 µg/mL | IC50 [6]: > 50 µM | % RD of diosgenin depletion ([7]; SGF pH 1.2, 30 min): 3.62% | % RD of diosgenin depletion ([7]; SGF pH 1.2, 60 min): 8.31% | % RD of diosgenin depletion ([7]; SGF pH 1.2, 120 min): 8.59% | Degradation (depletion) in SGF [7]: < 10% and 8.5% | Amount of diosgenin in SGF ([7]; SGF pH 1.2, incubation 0 min): 52.4 ± 0.9 µg/mL | Amount of diosgenin in SGF ([7]; SGF pH 1.2, incubation 30 min): 50.5 ± 0.9 µg/mL | Amount of diosgenin in SGF ([7]; SGF pH 1.2, incubation 60 min): 48.0 ± 1.9 µg/mL | Amount of diosgenin in SGF ([7]; SGF pH 1.2, incubation 120 min): 47.9 ± 1.1 µg/mL | Intrinsic clearance in S9 fraction ([8]; S9 fraction, diosgenin 100 μM): 7 mL/min/kg | half-life at 100 μM ([8]; human, s9): 11.3 min | IC50 [9]: > 50 µM | % Transport Absorptive direction (A–B) [10]: 3.8% and 3.8 ± 0.8% | % Transport Secretory direction (A–B) [10]: 21% and 21 ± 1% | Intestinal permeability across Caco-2 monolayers (rating) [10]: moderate | Diosgenin levels in apical or basolateral side ([10]; transport buffer (HBSS) without HPβCD, after 2-hour incubation): no diosgenin levels were detected | Papp A→B at 2 h [11]: 9.6 ± 0.7 ×10⁻⁶ cm/s | Papp B→A at 2 h [11]: 48 ± 4 ×10⁻⁶ cm/s | efflux ratio at 120 min [11]: 5 | Aqueous solubility [12]: poor aqueous solubility | Effect on CYP 1A2 (other CYP enzymes) [13]: not affected

C[C@@H]1CC[C@@]2(OC1)O[C@H]1C[C@H]3[C@@H]4CC=C5C[C@@H](O[C@@H]6O[C@H](CO)[C@@H](O[C@@H]7O[C@@H](C)[C@H](O)[C@@H](O)[C@H]7O)[C@H](O)[C@H]6O[C@@H]6O[C@@H](C)[C@H](O)[C@@H](O)[C@H]6O)CC[C@]5(C)[C@H]4CC[C@]3(C)[C@H]1[C@@H]2C [Dioscin, dioscin]
Compound detected after incubation in HLM ([1]; dioscin 50 μM): more than 50% | Stability in HLM (Phase I) [1]: relatively stable | IC50 [2, 16]: 33 ± 4 µM | IC50 [2, 17]: 33.4 µM | Half-life after oral administration ([14]; oral): 1540 min | Oral bioavailability [14]: low oral bioavailability | Effect on CYP 2D6 (other CYP enzymes) ([4]; words): not affected | % RD of dioscin depletion ([5]; SIF pH 6.8, 60 min): 4.3% | % RD of dioscin depletion ([5]; SIF pH 6.8, 120 min): 9.9% | % RD of dioscin depletion ([5]; SIF pH 6.8, 180 min): 11.6% | Amount of dioscin in SIF ([5]; SIF pH 6.8, incubation 0 min): 41.1 ± 0.8 µg/mL | Amount of dioscin in SIF ([5]; SIF pH 6.8, incubation 60 min): 39.3 ± 1.0 µg/mL | Amount of dioscin in SIF ([5]; SIF pH 6.8, incubation 120 min): 37.0 ± 1.3 µg/mL | Amount of dioscin in SIF ([5]; SIF pH 6.8, incubation 180 min): 36.3 ± 1.1 µg/mL | IC50 [6]: > 50 µM | % RD of dioscin depletion ([7]; SGF pH 1.2, 30 min): 16.7% | % RD of dioscin depletion ([7]; SGF pH 1.2, 60 min): 23.6% | % RD of dioscin depletion ([7]; SGF pH 1.2, 120 min): 28.3% | Degradation (depletion) in SGF [7]: 28.3% | Amount of dioscin in SGF ([7]; SGF pH 1.2, incubation 0 min): 45.0 ± 4.0 µg/mL | Amount of dioscin in SGF ([7]; SGF pH 1.2, incubation 30 min): 37.5 ± 1.2 µg/mL | Amount of dioscin in SGF ([7]; SGF pH 1.2, incubation 60 min): 34.4 ± 1.1 µg/mL | Amount of dioscin in SGF ([7]; SGF pH 1.2, incubation 120 min): 32.3 ± 1.0 µg/mL | Dioscin still detected after incubation in SGF ([7]; after 3-hour incubation in SGF as printed): 71.7% | Compound detected after incubation in S9 fractions ([8]; S9 fractions, dioscin 50 μM): more than 50% | Stability in S9 fraction (Phase II) ([8]; S9 fractions, words): relatively stable | IC50 [9]: > 50 µM | Effect on CYP 1A2 (other CYP enzymes) ([9]; words): not affected | Efflux across Caco-2 monolayer ([10]; Caco-2, words): no significant efflux | % Transport Absorptive direction (A–B) [10]: 7.5% and 7.5 ± 0.8% | % Transport Secretory direction (A–B) [10]: 11% and 11 ± 1% | Intestinal permeability across Caco-2 monolayers (rating) [10]: moderate | Papp A→B at 2 h [11]: 15 ± 1 ×10⁻⁶ cm/s | Papp B→A at 2 h [11]: 20 ± 3 ×10⁻⁶ cm/s | efflux ratio at 120 min [11]: 1.3 | Effect on CYP 2C9 as printed in text (other CYP enzymes) [15]: not affected

lucifer yellow [Ly, reference compound]
Papp of Ly (monolayer integrity marker) ([10]; Caco-2): 2.0 ± 0.5 × 10^−6 cm/s
